Each structure is given as a SMILES string.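 Grown in 96-well plates, cells were treated for 48 hours with each compound at five concentrations. Insufficient inhibition: endpoint recorded as highest concentration tested. GI50 = concentration required for 50% inhibition of growth. TGI: concentration producing complete growth inhibition.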

The values that follow come from PubChem BioAssay (NCI).

Test in all cases: NCI-60 cell line screen, 48 h
The test system of assay [1] is A549 NSCLC.
For assay [2], the system named is OVCAR-3 ovarian.
Assay [3] deals with SN12C renal.
Assay [4] has as its system NCI-H226 lung.
Assay [5] has as its system CCRF-CEM leukemia.
The subject of assay [6] is HOP-62 NSCLC.
Assay [7] relates to SNB-19 CNS.
Assay [8] has as its system A498 renal.
Assay [9] relates to M14 melanoma.
In assay [10] the test system is K-562 leukemia.

`CC1(C)N=C(N)N=C(N)N1c1ccc(Cl)c(Cl)c1`: the GI50 in assay [1] is 0.152 µM; in assay [2], 5.27 µM; in [3] it was 0.694 µM; in assay [5], 3.39 µM; in assay [6] it was 0.533 µM; in assay [7], 1 µM. For the same compound, the GI50 is 11.2 µM in assay [8], 0.441 µM in [9] and 0.0636 µM in assay [10]. Moreover, the TGI was above 100 µM in [1]; above 100 µM in assay [2]; above 100 µM in assay [3]; above 100 µM in assay [4]; above 52.3 µM in assay [5]; above 100 µM in assay [6]. The TGI in assay [7], in [8], in [9] and in assay [10] was above 100 µM throughout.

Consider `CCN(CC)CCC(=O)/C=C/c1ccc(C)cc1`, for which the TGI was 34.5 µM in assay [1]; 31.1 µM in assay [2]; 24.8 µM in assay [3]; 31.9 µM in assay [4]; 56.1 µM in assay [5]; 71.1 µM in assay [6]. The TGI was 37.5 µM in [7], 24 µM in assay [8], 26.8 µM in assay [9] and above 100 µM in assay [10].

On to `CC(OC(=O)N(N(CCCl)S(C)(=O)=O)S(C)(=O)=O)c1ccc([N+](=O)[O-])cc1` (centres undefined), for which the GI50 is above 58.3 µM in [1]; 42.5 µM in assay [2]; 34.9 µM in assay [3]; 29.1 µM in [4]; 0.179 µM in assay [5]; 29.4 µM in assay [6]. Besides, the GI50 in [7] is above 88.9 µM; in assay [8], 1.7 µM; in assay [9], 49.4 µM; in [10], 35.7 µM. In addition, the TGI in assay [1] was above 100 µM; in [2], above 100 µM; in assay [3], above 100 µM; in assay [4], 79.3 µM; in [5] it was 15.9 µM; in assay [6], above 100 µM. For the same compound, the TGI in assay [7] is above 100 µM; in assay [8], 43.3 µM; in assay [9] it was above 100 µM; in [10] it was above 100 µM.

Regarding `COc1ccc2nccc(/C=C/c3ccnc4ccc(OC)cc34)c2c1`, the GI50 in assay [1] was above 100 µM; in [2], above 92 µM; in [3], above 100 µM; in assay [4], above 100 µM; in [5], above 38.9 µM; in [6], above 64.3 µM. Besides, the GI50 is above 100 µM in assay [7], above 36.9 µM in assay [8], above 42 µM in [9] and above 43 µM in assay [10]. The TGI is above 100 µM in assay [1]; above 100 µM in [2]; above 100 µM in [3]; above 100 µM in assay [4]; above 53.3 µM in assay [5]; above 100 µM in assay [6]. For the same compound, the TGI in assay [7] was above 100 µM; in assay [8], above 83.9 µM; in assay [9] it was above 56 µM; in [10] it was above 59.1 µM.

`Oc1c(CNCCNCc2cc(Cl)cc(Cc3ccccc3)c2O)cc(Cl)cc1Cc1ccccc1`: the GI50 in [1] was 0.469 µM; in [2], 0.428 µM; in [3] it was 0.483 µM; in assay [4] it was 0.438 µM; in [5] it was 0.127 µM; in [6] it was 0.307 µM. Moreover, the GI50 in [7] was 0.701 µM; in [8], 1.22 µM; in [9], 0.316 µM; in assay [10], 0.391 µM. The TGI is above 100 µM in assay [1]; 31.1 µM in [2]; 19.4 µM in assay [3]; 15.5 µM in [4]; 24.4 µM in assay [5]; 47.3 µM in [6]. In addition, the TGI in assay [7] is above 100 µM; in assay [8], 8.88 µM; in assay [9], 10.7 µM; in [10] it was 27.2 µM.

On to `COc1cc2c(cc1OC)[C@@H]([C@H](O)c1ccccc1)NCC2`, for which the TGI in assay [1], in assay [2], in assay [3], in assay [4], in assay [5] and in [6] was above 100 µM throughout. Besides, the TGI in [7], in [8], in [9] and in assay [10] was above 100 µM throughout.

As to `C/C=C1\CCC2c3[nH]c4ccccc4c3CCN2C1` (centres undefined), the TGI in assay [1], in [2], in [3], in assay [4], in [5] and in assay [6] was above 100 µM in each case. Further, the TGI in [7] was above 100 µM; in assay [8], above 100 µM; in assay [9], 75.8 µM; in assay [10] it was above 100 µM.

On to `FC(F)(F)c1[nH]ncc1-c1nc2ccc3[nH]ncc3c2c2c1CCCC2`, for which the GI50 in assay [1] is 1.77 µM; in assay [2], 2.66 µM; in assay [3], 1.53 µM; in assay [4], 2.26 µM; in assay [5], 2.15 µM; in assay [6], 1.17 µM. Moreover, the GI50 is 2.64 µM in [7], 1.17 µM in assay [8], 1.09 µM in [9] and 2.71 µM in assay [10]. Moreover, the TGI in assay [1] turned out to be 8.45 µM; in assay [2], 6.86 µM; in assay [3] it was 5.6 µM; in assay [4], 12.4 µM; in assay [5] it was 10.7 µM; in assay [6], 6.79 µM. Moreover, the TGI in assay [7] amounted to 9.09 µM; in assay [8] it was 2.6 µM; in assay [9], 2.9 µM; in assay [10], 60.5 µM.

As for `Cc1cc2c(cc1C)[n+](Cc1ccc3ccccc3n1)cn2Cc1ccc2ccccc2n1`, the GI50 was 2.83 µM in [1]; 0.628 µM in assay [2]; 0.792 µM in assay [3]; 1.59 µM in assay [4]; 1.83 µM in assay [5]; 1.27 µM in assay [6]. Further, the GI50 is 0.91 µM in assay [7], 1.04 µM in assay [8], 0.586 µM in [9] and 0.527 µM in [10]. In addition, the TGI is 13 µM in assay [1]; 2.12 µM in [2]; 2.17 µM in assay [3]; 4.01 µM in [4]; 12.8 µM in assay [5]; 3.13 µM in assay [6]. For the same compound, the TGI is 2.36 µM in assay [7], 2.36 µM in [8], 2.42 µM in assay [9] and 3 µM in assay [10].
